Experimental data taken from US20140234373A1, “Methods of Promoting Immune Tolerance” (Georgia Regents University, priority 2011, published 2014).

What was measured:
[1] = system: B6 mice (mBSA-induced arthritis); assay: mBSA-induced arthritis model; assay type: in vivo; conditions: local joint inflammation
Experimental: B6 mice were sensitized with methylated BSA (mBSA, s/c, […] in CFA (day 0). Booster injections of mBSA in IFA were given on days 7 and 14, and arthritis was induced on day 21 by intra-articular injection of mBSA (10 μg in PBS, challenge).
Arthritis severity was evaluated by measuring joint swelling, neutrophil infiltration, and histological analysis as described (Lemos, et al., Proc Natl Acad Sci USA, 106:5954-5959 (2009)). In brief, joint swelling was assessed using a vernier caliper, and was expressed as the increase in diameter (mm) relative to non-inflamed joints in each mouse at experimental starting points. Neutrophils were counted after harvesting cells from articular cavities 24 hours after mBSA challenge. Results were presented as neutrophil numbers per cavity (mean±SEM). Arthritis was analyzed histologically 28 days after initial immunization (experimental endpoints). Knee joints were dissected and fixed in 10% buffered formalin for 3 days. […] Sections were examined by two independent observers and graded blindly using a semi-quantitative score from 0 to 3 (0, no; 1, mild; 2, moderate; 3, severe alterations) for the extent of (a) synovial lining layer hyperplasia and (b) infiltration of leukocytes into synovial membrane/joint space (as measures of joint inflammation); and (c) pannus formation and necrosis/erosion of cartilage (as a measure of joint destruction). […]

[2] = system: OVA-specific OT-2 T cells; assay: In vivo suppression assay, OT-2 T cell responses to OVA immunization; conditions: oral 1MT with pDNA/PEI, OVA-immunized B6 mice
Experimental: CFSE-labeled OVA-specific T cells from OT-1 or OT-2 donor mice were injected (i/v) into recipient B6 mice at least 1 day before immunization. CFSE labeling was performed by incubating MACS-enriched splenic CD8+ (OT-1) or CD4+ (OT-2) T cells at ˜10×10^6 cells/ml in PBS with 2 μM CFSE at 37° C. for 15 mins Cells were washed in PBS and injected into recipients (i/v). Mice were then immunized with […] erythrocyte-free spleen cells from Act-mOVA transgenic mice (s/c), and treated with pDNA/PEI nanoparticles and oral 1MT as indicated in FIG. 3.
Cells were stained with the following antibodies; anti-CD4 (clone RM4-5), anti-Thy1.1 (clone OX-7), anti-NK1.1 (clone PK136), anti-CD49b (clone DX5), anti-IFNγ (clone XMG1.2) from Pharmingen-BD-Biosciences (San Jose, Calif.), and analyzed using a LSR2 flow cytometer (Becton-Dickinson). CFSE was purchased from Invitrogen. For detecting intracellular IFNγ, cells were surface stained with anti-NK1.1 and anti-DX5, fixed with cytofix/cytoperm, washed with Perm/Wash solution (BD Bioscience) and stained with anti-IFNγ. Some cells were incubated in RPMI with 1 μM of brefeldin (BD Bioscience) for 3 hrs. with no further stimulations to accumulate cytokine before staining. For detecting IFNγ in OT-2 T cells, dLN cells were stimulated with PMA/ionomycin for 2 hrs. with brefeldin. […]

NODf mice = assay: Type I diabetes onset in NOD female mice; assay type: in vivo; conditions: oral 1MT, no other treatment
Description: IDO slows T1D progression in a subset of NODf mice (FIG. 10 (-▴-)), as IDO inhibitor accelerated disease onset in at least 50% of NOD female mice.

OT-1 T cells = assay: DC suppression assay (splenic DCs from treated mice with OT-1 T cells); assay type: in vivo; conditions: DCs from pDNA/PEI-treated B6 mice, 1MT 100 μM
Experimental: MACS-enriched splenic DCs (CD11c+) and Tregs (CD4+CD25+) were isolated according to manufacturer's instructions, except that cells were incubated with beads at RT (Magnetic Cell Separation Technology (MACS)—Miltenyi Biotec Inc., Auburn, Calif.). T cell stimulatory activity of DCs was assessed by culturing graded numbers of DCs (X-Y) with responder (MACS-enriched) CD8+ T cells from OT-1 (+SIINFEKL peptide) (SEQ ID NO:1) TCR-Tg mice+/−1MT as described (11). Suppressor activity of splenic Tregs was assessed by culturing graded numbers of Tregs with responder A1 (H-Y-specific) T cells, APCs (female CBA) and male (H-Y) peptide; a cocktail of anti-PD-1, anti-PD-L1, and anti-PD-L2 mAbs was added to some cultures to block PD-1-PD-L interactions as described (Baban, et al., J Immunol, 183:2475-2483 (2009), Sharma, et al., J Clin Invest 117:2570-2582 (2007)).
Assays to detect IDO-dependent T cell regulatory phenotypes in splenic DCs were performed as previously described. Briefly, MACS enriched (CD11c^+) spleen cells were cultured for 72 hours with MACS-enriched CD8α^+ T cells from OT-1 TCR transgenic mice and OVA257-264 peptide (SIINFEKL (SEQ ID NO:1)), 100 nM). Proliferation was assessed by adding 1 μCi methyl-[^3H]-thymidine for the final 6 hours and quantified using a BetaPlate counter (Wallac). […] Proliferation was assessed as described above. […]

SMILES: Cn1cc(C[C@@H](N)C(=O)O)c2ccccc21 [1MT, 1-methyl-[D]-tryptophan]
- effect of oral 1MT on ameliorative effects of pAT/PEI therapy [1]: reversed
- effect of IDO inhibitor on suppressive effects of DNP treatment [2]: abrogated
- mice that developed diabetes faster than control (NODf mice): 50%
- mice that developed diabetes faster than control (NODf mice; listed as IDO inhibitor): at least 50%
- effect of adding 1MT on T cell responses (OT-1 T cells): restored robust T cell responses
